What was measured:
Assay in all cases: relative viability (nuclei count vs DMSO), 5 days (fraction); higher = more cells survive
Vorinostat + Tozasertib = compound: O=C(CCCCCCC(=O)Nc1ccccc1)NO [Vorinostat] + Cc1cc(Nc2cc(N3CCN(C)CC3)nc(Sc3ccc(NC(=O)C4CC4)cc3)n2)n[nH]1 [Tozasertib] (partner 0.1 µM)
In short: (§1)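 Five library-drug doses in √10 steps were combined with a fixed anchor-drug dose, or a single drug was given alone, by pin tool to lung cancer cell lines in 1536-well plates the day after seeding. Nuclei were stained and counted after 5 days. Relative viability is the nuclei count in treated wells over that in vehicle wells, taken as the median of duplicate plates.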

Vorinostat + Crizotinib = compound: O=C(CCCCCCC(=O)Nc1ccccc1)NO [Vorinostat] + C[C@@H](Oc1cc(-c2cnn(C3CCNCC3)c2)cnc1N)c1c(Cl)ccc(F)c1Cl [Crizotinib] (partner 1 µM)
In short: as §1

Vorinostat + Palbociclib = compound: O=C(CCCCCCC(=O)Nc1ccccc1)NO [Vorinostat] + CC(=O)c1c(C)c2cnc(Nc3ccc(N4CCNCC4)cn3)nc2n(C2CCCC2)c1=O [Palbociclib] (partner 0.5 µM)
In short: as §1

Vorinostat + AZD7762 = compound: O=C(CCCCCCC(=O)Nc1ccccc1)NO [Vorinostat] + NC(=O)Nc1cc(-c2cccc(F)c2)sc1C(=O)N[C@H]1CCCNC1 [AZD7762] (partner 0.2 µM)
In short: as §1

Vorinostat + Pemetrexed = compound: O=C(CCCCCCC(=O)Nc1ccccc1)NO [Vorinostat] + Nc1nc2[nH]cc(CCc3ccc(C(=O)N[C@@H](CCC(=O)O)C(=O)O)cc3)c2c(=O)[nH]1 [Pemetrexed] (partner 0.2 µM)
In short: as §1

Cell Line | relative viability (Vorinostat + Tozasertib; first compound 0.253 µM) | relative viability (Vorinostat + Tozasertib; first compound 0.8 µM) | relative viability (Vorinostat + Tozasertib; first compound 2.53 µM) | relative viability (Vorinostat + Tozasertib; first compound 8 µM) | relative viability (Vorinostat + Crizotinib; first compound 0.253 µM) | relative viability (Vorinostat + Crizotinib; first compound 0.8 µM) | relative viability (Vorinostat + Crizotinib; first compound 2.53 µM) | relative viability (Vorinostat + Crizotinib; first compound 8 µM) | relative viability (Vorinostat + Palbociclib; first compound 0.253 µM) | relative viability (Vorinostat + Palbociclib; first compound 0.8 µM) | relative viability (Vorinostat + Palbociclib; first compound 2.53 µM) | relative viability (Vorinostat + Palbociclib; first compound 8 µM) | relative viability (Vorinostat + AZD7762; first compound 0.253 µM) | relative viability (Vorinostat + AZD7762; first compound 0.8 µM) | relative viability (Vorinostat + AZD7762; first compound 2.53 µM) | relative viability (Vorinostat + AZD7762; first compound 8 µM) | relative viability (Vorinostat + Pemetrexed; first compound 0.253 µM) | relative viability (Vorinostat + Pemetrexed; first compound 0.8 µM) | relative viability (Vorinostat + Pemetrexed; first compound 2.53 µM) | relative viability (Vorinostat + Pemetrexed; first compound 8 µM)
NCI-H2085 | 0.771 | 0.651 | 0.376 | 0.311 | 0.8 | 0.831 | 0.436 | 0.181 | 0.464 | 0.419 | 0.302 | 0.172 | 0.962 | 0.898 | 0.518 | 0.207 | 1.02 | 0.738 | 0.45 | 0.18
NCI-H2405 | 0.718 | 0.692 | 0.339 | 0.117 | 0.917 | 0.88 | 0.415 | 0.0921 | 0.604 | 0.627 | 0.286 | 0.13 | 0.904 | 0.742 | 0.262 | 0.11 | 1.18 | 1.1 | 0.357 | 0.122
PC-14 | 0.586 | 0.389 | 0.0619 | 0.018 | 0.888 | 0.865 | 0.215 | 0.0683 | 0.56 | 0.351 | 0.0802 | 0.0377 | 0.33 | 0.288 | 0.106 | 0.0453 | 0.162 | 0.177 | 0.14 | 0.0507
NCI-H358 | 0.128 | 0.11 | 0.0949 | 0.0726 | 0.526 | 0.393 | 0.133 | 0.134 | 0.139 | 0.167 | 0.101 | 0.0793 | 0.466 | 0.312 | 0.14 | 0.159 | 0.155 | 0.155 | 0.152 | 0.0859
NCI-H1755 | 0.613 | 0.51 | 0.319 | 0.179 | 0.942 | 0.883 | 0.233 | 0.154 | 0.431 | 0.463 | 0.3 | 0.209 | 0.478 | 0.402 | 0.276 | 0.163 | 0.458 | 0.382 | 0.285 | 0.177
NCI-H2087 | 0.262 | 0.14 | 0.0617 | 0.0825 | 0.838 | 0.727 | 0.236 | 0.177 | 0.277 | 0.107 | 0.0624 | 0.0734 | 1.35 | 1.04 | 0.498 | 0.102 | 0.637 | 0.617 | 0.347 | 0.132
NCI-H1666 | 0.499 | 0.346 | 0.307 | 0.259 | 0.788 | 0.713 | 0.244 | 0.22 | 0.634 | 0.576 | 0.523 | 0.511 | 0.778 | 0.826 | 0.461 | 0.322 | 0.849 | 0.887 | 0.651 | 0.434
201T | 0.742 | 0.534 | 0.334 | 0.203 | 1.12 | 1.03 | 1.02 | 0.317 | 0.363 | 0.357 | 0.379 | 0.242 | 0.527 | 0.595 | 0.495 | 0.197 | 0.327 | 0.323 | 0.253 | 0.25
NCI-H1944 | 0.239 | 0.221 | 0.132 | 0.0956 | 0.965 | 0.631 | 0.292 | 0.125 | 0.31 | 0.272 | 0.176 | 0.118 | 0.328 | 0.27 | 0.19 | 0.104 | 0.585 | 0.448 | 0.311 | 0.135
PC-3 [JPC-3] | 0.821 | 0.741 | 0.229 | 0.266 | 0.955 | 0.97 | 0.41 | 0.228 | 0.521 | 0.506 | 0.45 | 0.378 | 0.834 | 0.526 | 0.306 | 0.271 | 1.1 | 0.866 | 0.285 | 0.281
NCI-H2170 | 0.729 | 0.462 | 0.147 | 0.155 | 1.29 | 0.967 | 0.229 | 0.149 | 0.407 | 0.345 | 0.253 | 0.102 | 1.23 | 0.923 | 0.332 | 0.106 | 0.249 | 0.242 | 0.222 | 0.114
LCLC-97TM1 | 0.19 | 0.158 | 0.159 | 0.149 | – | 0.328 | 0.157 | 0.11 | 0.256 | 0.201 | 0.109 | 0.0671 | 0.129 | 0.256 | 0.205 | 0.0628 | 0.155 | 0.149 | 0.146 | 0.0924
HOP-62 | 0.405 | 0.32 | 0.116 | 0.08 | 0.972 | 0.831 | 0.251 | 0.0671 | 0.492 | 0.409 | 0.177 | 0.0765 | 0.258 | 0.518 | 0.145 | 0.0514 | 0.393 | 0.28 | 0.212 | 0.0997
LXF-289 | 0.209 | 0.165 | 0.0836 | 0.0447 | 0.904 | 0.76 | 0.273 | 0.0737 | 0.65 | 0.599 | 0.476 | 0.0862 | 1.14 | 1.09 | 0.344 | 0.0727 | 0.905 | 0.794 | 0.554 | 0.0613
NCI-H647 | 0.279 | 0.183 | 0.078 | 0.0319 | 1.15 | 0.591 | 0.178 | 0.0502 | 0.453 | 0.158 | 0.0854 | 0.0249 | 0.406 | 0.333 | 0.0641 | 0.0356 | 0.226 | 0.138 | 0.0722 | 0.0562
LK-2 | 0.179 | 0.178 | 0.157 | 0.125 | 0.227 | 0.237 | 0.175 | 0.0931 | 0.724 | 0.585 | 0.104 | 0.0605 | 0.334 | 0.373 | 0.126 | 0.0415 | 0.278 | 0.262 | 0.138 | 0.036
